Measurements: patent EP1475385A1 (Newron Pharmaceuticals S.p.A., priority 2003, dated 2004)
Where two headings read alike, the source gives them in different places.

Assays:
KYNA [1] = experiment: Measurement of hippocampal KYNA levels by microdialysis; type: in vivo, rats
Experimental: Measurement of hippocampal kyna levels: Microdialysis was performed in adult, male rats (Charles-River; 200-250 g). Under anesthesia, a microdialysis probe (CMA/10, membrane length: 2 mm, Carnegie […], Stockholm, Sweden) was implanted vertically into the brain, extending throughout the dorsal hippocampus. On the next day, the probe was connected to a microperfusion pump, and the hippocampus of the unanesthetized rat was perfused with Ringer solution at a speed of 1 microliter/min. Dialysate was collected every 30 min. The concentration of KYNA in the dialysis samples was determined by HPLC with fluorimetric detection, using the analytical procedure described by Wu et al. (Eur. J. Neurosci., 4: 1264-1270,1992).

brain KMO = target: T1, brain KMO (Rattus norvegicus, UniProt O88867); experiment: In vitro KMO activity determination (rat brain mitochondria preparation, HPLC of 3-OH-KYN formation); type: biochemical
T1 construct: from tissue; host or cells: rat brain cortex, mitochondrial fraction (male Wistar rats)
T1 sequence (O88867 whole entry): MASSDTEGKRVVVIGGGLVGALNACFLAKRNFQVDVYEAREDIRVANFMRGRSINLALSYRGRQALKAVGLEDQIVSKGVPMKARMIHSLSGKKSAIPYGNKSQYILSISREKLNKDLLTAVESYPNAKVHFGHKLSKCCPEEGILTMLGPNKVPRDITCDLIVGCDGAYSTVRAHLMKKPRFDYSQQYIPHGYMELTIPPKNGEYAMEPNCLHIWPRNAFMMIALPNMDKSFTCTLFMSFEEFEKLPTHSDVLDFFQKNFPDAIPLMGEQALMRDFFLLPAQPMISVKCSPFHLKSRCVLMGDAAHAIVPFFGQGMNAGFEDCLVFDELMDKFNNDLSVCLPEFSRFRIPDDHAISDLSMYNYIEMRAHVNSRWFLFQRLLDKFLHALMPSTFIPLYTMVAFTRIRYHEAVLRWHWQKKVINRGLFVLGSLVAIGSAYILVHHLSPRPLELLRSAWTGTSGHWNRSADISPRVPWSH
Experimental: Rat brain mitochondria preparation: Male Wistar rats were sacrificed and brain quickly removed, cortex was dissected out on ice and homogenized in 2.5 volumes of ice-cold 0.32 M saccarose using a glass-Teflon homogenizer. After centrifugation at 600 g for 10 min at 4°C, the supernatant was stored and the pellet was washed and centrifuged again. The two supernatants were pooled and centrifuged at 10,000 g for 10 min at 4°C. The pellet was washed in fresh saccarose and centrifuged twice at 15,000 g for 10 min at 4°C. The pellet (corresponding to the mitochondrial fraction) was resuspended in 2.5 volumes of ice-cold 20 mM potassium phosphate buffer containing 0.14 M KCl, pH 7.0. Protein content was determined by BCA protein assay kit from Pierce.
In vitro KMO activity determination: The enzyme activity was evaluated by measuring by HPLC the formation of 3-OH-KYN in homogenates incubated in the presence of a fixed concentration of KYN (close to the enzyme Km that in our experimental conditions is 30 µM) […]
IC50 values were determined from three independent inhibition curves using at least seven different inhibitor concentrations using non linear regression analysis (best fitting aided-computer program.

GLU = experiment: Striatal GLU release by transcerebral microdialysis (caudate); type: in vivo, Wistar rats; details: caudate dialysate
Experimental: (§1) Striatal GLU release: Transcerebral microdialysis tubing having an exposed length of 1 mm for each caudate, were implanted through small burr holes drilled in the skull of anesthetized male Wistar rats. Approximately twelve hours after surgery, in freely moving animals, the membranes were perfused at a flow rate of 3.5 µl/min. After a washout period of approximately one hour, fractions were collected to determine the basal output of KYNA and of GLU. KYNA was measured using HPLC with post column derivatization and fluorometric detection as previously reported. HPLC separation and fluorometric detection was also used for quantitative measurements of GLU (Carpenedo et al 2001, Europ. J. Neuroscience 13, 2141-2147).

KYNA [2] = experiment: KYNA output in caudate dialysate by transcerebral microdialysis; type: in vivo, Wistar rats
Experimental: as §1

KMO = KMO (Homo sapiens, UniProt O15229); details: reported in WO 98/40344; read-out: IC50 for KMO inhibition; cited from earlier work
Sequence of KMO (O15229 whole entry, species assumed): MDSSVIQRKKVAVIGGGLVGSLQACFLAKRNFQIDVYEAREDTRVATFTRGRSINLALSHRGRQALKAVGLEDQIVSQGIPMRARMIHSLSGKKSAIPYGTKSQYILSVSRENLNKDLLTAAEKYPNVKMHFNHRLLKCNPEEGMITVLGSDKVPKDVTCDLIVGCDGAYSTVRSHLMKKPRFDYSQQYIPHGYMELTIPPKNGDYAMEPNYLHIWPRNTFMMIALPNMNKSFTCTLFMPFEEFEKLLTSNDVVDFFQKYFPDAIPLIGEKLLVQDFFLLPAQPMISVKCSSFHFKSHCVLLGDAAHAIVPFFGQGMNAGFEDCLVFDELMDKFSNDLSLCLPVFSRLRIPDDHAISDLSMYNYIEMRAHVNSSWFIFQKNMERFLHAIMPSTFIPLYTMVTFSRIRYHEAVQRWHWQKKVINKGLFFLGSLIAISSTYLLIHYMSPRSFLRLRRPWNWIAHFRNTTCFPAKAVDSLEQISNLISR

## O=C(OC[C@H]1O[C@H](O)[C@H](O)[C@@H](O)[C@H]1O)[C@H]1C[C@@H]1C(=O)c1ccc(Cl)c(Cl)c1
KYNA [1]; hippocampus dialysate, 50 mg/kg ip, 6 hours after drug administration, mean ± SEM, P< 0.01, basal 2.6 ± 0.2 nM
  KYNA extracellular concentration, maximum increase: 26.7 ± 2.2 nM
KYNA [1]; hippocampus, 25 and 50 mg/kg i.p., systemic administration
  brain KYNA content: dose-dependently increased
KYNA [1]; hippocampus, up to 24 h after both 25 and 50 mg/kg i.p., P<0.05
  dialysate KYNA concentration: significant increase
Brain KMO; compound preincubated with mitochondria preparation for 30 min before adding the substrate (KYN), compared with IC50 without pre-incubation
  IC50: not significantly different
Brain KMO; in vitro brain KMO, without pre-incubation, KYN 50 µM, 60 min at 37°C, read-out: IC50
  IC50: 66 nM
GLU; 24 h later
  decrease in GLU concentrations: -65%
GLU; highest dose (30-100 µmol/kg i.p.), in 2 hrs (maximum), basal 4.3 ± 0.9 µM
  decrease in GLU concentrations: -78 ± 8%
KYNA [2]; 180 min after drug administration, basal 13.2 ± 0.1 nM
  brain KYNA content, maximum increase: +750%
KYNA [2]; up to 24 h after 100 µmol/kg i.p.
  increase in dialysate KYNA concentration: +280%

## O=C(O)C1CC1C(=O)c1ccc(Cl)c(Cl)c1 (stereo not shown) [2-(3,4-dichlorobenzoyl)-cyclopropane-1-carboxylic acid]
KMO
  IC50: 180 nM
